Where a SMILES comes first, the peptide text is derived from it. Where no end group is shown, it is not given here. The star is where a group is joined. Biotin = O=C1N[C@H]2[C@H](CS[C@H]2CCCCC(=O)*)N1; Ahx = NCCCCCC(=O)O
How the values were obtained:
[1] = tested on: E1 and E2s (ubc5c and ubc7); assay: Coupled ubiquitin assay, ubiquitination of active site cysteines of E1 and E2; format: biochemical; conditions: 20 mM DTT
Method: Recombinant E1 (ubc5c) and E2 (ubc7) components were obtained from BostonBiochem (Cambridge, Mass.). Radiolabeled ubiquitin was generated by PKA-mediated incorporation of [^32P]-phosphate from […] to the PKA site of the GST-Ub fusion protein (pGEX KG expression vector). The ubiquitin assay buffer (UbB) was as follows: 50 mM Tris pH 7.6, 1 mM ATP, 0.2 mM EDTA, 5 mM MgCl2, 1 unit inorganic pyrophosphatase, 0.005% TRITON® X-100 detergent and 1 μM staurosporine. In a 0.030 mL reaction, the following components were present: 50-200 ng E1, 0.1-1 μg E2 and 5 μg GST-Ub. […] Reactions were analyzed by SDS-PAGE. The ubiquitination of active site cysteine residues of E1 and E2s (ubc Sc and ubc 7) was observed (FIGS. 9A-9C).

Smad1 = assay: In vivo ubiquitination of Smad1 in transfected COS cells (immunoprecipitation, Western); format: cell-based; conditions: COS cells treated with LLF, with or without BMP
Method: To assess the in vivo ubiquitination of Smad1, a Smad1 expression vector was transfected into COS cells. The transfected cells were treated with BMP and the proteasome inhibitor LLF, as described above. The cells were then lysed and equal amounts of protein were used for immunoprecipitation using anti-HA antibody, to precipitate tagged-Smad1 protein. The immunoprecipitated Smad1 was run on SDS-PAGE, followed by a Western blot using anti-HA antibody or anti-ubiquitin antibody (BAbCo).

HA-tagged Smad1 = assay: BMP-induced Smad1 degradation in transfected COS cells (Western, anti-HA); format: cell-based; conditions: 100 ng BMP 4 hours, 50-100 μM LLF
Method: HA-tagged Smad1 expression vector was transfected into COS cells. The transfected cells were then treated with 100 ng BMP for 4 hours in the absence or presence of 50-100 μM of the proteasome inhibitor Leu-Leu-Phe (LLF). The cells were lysed and equal amount of protein was loaded in each lane. Western analysis was performed using anti-HA antibody (BAbCo, Berkeley, Calif.).

WWP1 WW domains = assay: TRF binding assay of biotinylated PY motif peptides to GST-WW domain fusions; conditions: for Interaction with WWP1 WW domains (TRF, peptide titration): GST-WW domains coated at 30 μg/mL overnight
Method: Each domain was individually expressed as a GST fusion protein. A TRF binding assay was used to evaluate interactions of PY motif peptides with these domains or GST alone. WW domains were bound to a 96-well polystyrene assay plate (Costar) overnight at 4° C. in a 200 mM carbonate buffer (Pierce, Rockford, Ill.) at different concentrations (0, 1, 3, 10 μg/mL). Unbound WW domain was washed away with distilled, deionized water and the plates were blocked with 1% BSA/carbonate buffer for 2 hours at room temperature. The plates were then washed with Tris/TWEEN® buffer: 50 mM Tris pH 7.5, 100 mM NaCl, 1 mM EDTA, 1% BSA, 1 mM DTT, 0.1% TWEEN® 20 detergent, protease inhibitor cocktail (Boehringer-Mannheim).
PY motif peptides were synthesized with a C6-linker and biotin tag.
These biotinylated peptides were solvated in Tris/TWEEN® buffer and added to the assay plates (30 μM). The plates were incubated at 4° C. for varying amounts of capture time. The plates were then washed with PBS/0.1% TRITON® X-100 detergent and probed for 1 hour at room temperature with 1 μg/mL Europium-labeled streptavidin (DELFIA; Wallac Oy, Turku, Finland) in DELFIA Assay Buffer/0.1% Triton X100. The unbound Europium-labeled streptavidin was washed with PBS/0.1% TRITON® X-100 detergent. Europium was released for time-resolved fluorescence measurements with the DELFIA Enhancement Buffer. Measurements were made on either the DELFIA 1234 or Victor fluorometers.
Smad PY motif peptides from Smad 1, 2, 3, 5, 6 and 7 (Table 1) were then evaluated with the WW domains from WWP1 (FIGS. 6A-6D and 7A-7B). The GST-WW domain fusion proteins and GST alone were coated at 30 μg/mL overnight. After blocking the wells with BSA, the WW domain peptides were titrated with the Smad PY motif peptides.

Molecule | Interaction with WWP1 WW domains (TRF, peptide titration) (WWP1 WW domains) | other results
O[C@@H](CS)[C@@H](O)CS [DTT] |  | Formation of thioester intermediates (ubiquitinated E1 and E2) [1]: prevented the formation of the thioester intermediates
CC(C)C[C@H](NC(=O)[C@@H](N)CC(C)C)C(=O)N[C@@H](Cc1ccccc1)C(=O)O [LLF, Leu-Leu-Phe] (H-Leu-Leu-Phe-OH) |  | Accumulation of high molecular weight ubiquitinated Smad1 (Smad1): accumulated more high molecular weight, ubiquitinated-Smad1 protein; Effect on BMP-induced Smad1 degradation (HA-tagged Smad1): blocks BMP-induced Smad1 degradation
AGLTPPPGYLSEDG (SEQ ID NO:25) (also: biotinylated) [Smad 3, biotinylated Smad3 PY motif peptide] | no measurable interaction | 
GPESPPPPYSRLSP (SEQ ID NO:21) (also: biotinylated) [Smad 6, biotinylated Smad6 PY motif peptide] | measurable interactions | 
{Biotin-Ahx}-HPGTPPPPYTVGPG-NH2 (SEQ ID NO:28) [WBP1, reference compound] |  | Binding to WWP1 WW domains (TRF) (WWP1 WW domains; peptide 30 μM, WW domains coated at 0, 1, 3, 10 μg/mL, GST alone as control): bound specifically
{Biotin-Ahx}-PADTPPPAYLPPED-NH2 (SEQ ID NO:22) [Smad 1] | no measurable interaction | 

The next lines start with results.

Interaction with WWP1 WW domains (TRF, peptide titration) (WWP1 WW domains) | Molecule | other results
no measurable interaction | IPETPPPGYISEDG (SEQ ID NO:24) (also: biotinylated) [Smad 2, biotinylated Smad2 PY motif peptide] | 
measurable interactions | PADTPPPAYMPPDD (SEQ ID NO:23) (also: biotinylated) [Smad 5, biotinylated Smad5 PY motif peptide] | 

From US7358056B1, “Methods for modulating signal transduction mediated by TGF-β and related proteins” (Signal Pharmaceuticals, priority 1999, dated 2008)
